# Measurements from patent US9193665B2, “Synthesis of galanal compounds and analogues thereof” (Academia Sinica, priority 2013, dated 2015).
# Legend:
# DIO mice = test: Oral glucose tolerance test (OGTT) in diet-induced obese (DIO) mice; type: in vivo; conditions: fasted DIO mice, compound by gavage 30 min before oral glucose 2 g/kg, glucose measured 0-90 min, FIG. 2A/2B
# Method: DIO mice were male C56BL/6J-Narl mice at age of 13 to 15 weeks that have been fed with Western Diet (TestDiet 5342) for 6 to 8 weeks. DIO mice were fasted for five hours and then gavaged with a compound described herein (e.g., compounds RJ21 and RJ27) at indicated dose or with vehicle alone. Thirty minutes later, the mice were gavaged with glucose (2 g/kg body weight). The level of blood glucose was measured right before and every 30 minutes after the glucose challenge up to 90 minutes. The data are expressed as mean±SD and analyzed by Student's t-test using Prism (GraphPad).
# The effect of the compounds to the homeostasis of blood glucose using oral glucose tolerance test (OGTT) was examined in this example. Fasted DIO mice were gavaged with RJ21, RJ27, or vehicle alone, and received an oral glucose challenge (2 g/kg body weight) 30 minutes later. The level of blood glucose was measured right before (0 minute) and every 30 minutes after the glucose gavage.
# GLP-1 receptor = target: T1, GLP-1 receptor (Rattus norvegicus, UniProt P32301); test: GLP-1 dependent cAMP production from RIN-m5F cells (ELISA); type: cell-based; conditions: 0.001 mg/ml compound
# T1 construct: endogenous in cells; host or cells: RIN-m5F cells
# T1 sequence (P32301 22-463): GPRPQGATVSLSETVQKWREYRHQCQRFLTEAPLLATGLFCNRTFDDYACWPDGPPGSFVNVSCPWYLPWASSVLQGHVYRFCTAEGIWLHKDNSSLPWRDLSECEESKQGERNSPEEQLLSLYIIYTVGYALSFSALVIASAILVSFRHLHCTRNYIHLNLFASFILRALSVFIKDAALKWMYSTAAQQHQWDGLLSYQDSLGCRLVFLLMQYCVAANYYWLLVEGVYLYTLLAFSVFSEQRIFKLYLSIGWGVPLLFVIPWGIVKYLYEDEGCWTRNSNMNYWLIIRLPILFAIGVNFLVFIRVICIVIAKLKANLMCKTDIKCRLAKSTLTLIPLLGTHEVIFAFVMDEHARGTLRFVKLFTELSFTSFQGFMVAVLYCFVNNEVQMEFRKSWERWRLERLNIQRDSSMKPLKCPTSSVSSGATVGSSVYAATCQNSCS
# Method: The cells were cultured in 37° C. with 5% CO2 for 42 hours prior to cAMP production experiment.
# The stimulation process was terminated by replacing the stimulation medium with 0.05 ml per well of ice-cold absolute ethanol, and further incubated at −20° C. for 20 min. The cellular cAMP was extracted with 0.085 ml PBS after the ethanol in the wells were evaporated in a vacuum desiccator for 35 min.
# The total cAMP from each well was determined by ELISA method according the procedure recommended by the supplier.
Compound,blood glucose level versus vehicle-treated mice (DIO mice),"potentiation of the effect of GLP-1 on cAMP production (factor) (GLP-1 receptor; 30 nM GLP-1, RIN-m5F cells, 15 min)","cAMP generation by the compound by itself (agonist effect) (GLP-1 receptor; RIN-m5F cells, little cAMP response at 3 nM GLP-1)"
COC(=O)C1=CC[C@H]2[C@@](C=O)(CCC3C(C)(C)CCC[C@@]32C)[C@H](O)C1 (stereo partly shown) [RJ27],significantly lower,,
galanal B [RJ21],significantly lower,2,did not affect
